The source of these data is US9789119B2, “Cognitive function” (priority 2010, dated 2017).

Entries after “also recorded” stand apart in the source; their conditions may differ.

One experiment concerns Ts65Dn mice. To be noted: short-term administration of low doses; cited from earlier work.
The test system of another experiment is wild-type (2N) mice. Briefly: Novel Object Recognition (NOR) task in wild-type (2N) mice. Format: in vivo, mouse. The following applies: 0.3 mg/kg IP daily for two weeks, light cycle (FIG. 1 panel B). Here is the method:
(§1) The NOR task is based on the established finding that mice preferentially explore novel objects relative to remembered objects. The test consists of a training session and a testing session. During the training session, a mouse is allowed 15 minutes to explore freely a training chamber that contains two objects. The amount of time the mouse uses to explore each object is quantified using video monitoring. The mouse is removed from the training session for 24 hours, during which time one of the objects in the training chamber is replaced with a novel object. The mouse is returned to the training chamber for the testing session, during which video monitoring is again used to quantify the amount of time the mouse uses to explore each object.
Ts65Dn mice and wild-type (2N) controls were maintained on a 12:12 light:dark (LD) cycle. At three months of age, their NOR task performance was determined. The animals then received daily intraperitoneal (IP) injections of pentylenetetrazole (PTZ; 0.3 mg/kg) for two weeks (“treatment”). A control group received vehicle control (saline; NaCl) only for the same duration. The IP injections occurred near the middle of the light phase or during the dark phase of a LD cycle. Two weeks after treatment end, the NOR task performance of all mice was again determined. All NOR tasks were performed during the light phase of a LD cycle. […]

In experiment [1] the test system is Ts65Dn mouse model of Down syndrome. Briefly: Novel Object Recognition (NOR) task in Ts65Dn mice. Format: in vivo. The following applies: 0.3 mg/kg IP daily for two weeks, NOR two weeks after treatment end. Here is the method: In this case, the effect of the noncompetitive GABAA receptor antagonist pentylenetetrazole (PTZ) on cognitive function in the Ts65Dn mouse model of Down syndrome was assessed with the Novel Object Recognition (NOR) task.
as §1
Ts65Dn mice and wild-type (2N) controls were maintained on a 12:12 light:dark (LD) cycle. At three months of age, their NOR task performance was determined. The animals then received daily intraperitoneal (IP) injections of pentylenetetrazole (PTZ; 0.3 mg/kg) for two weeks (“treatment”). […] Two weeks after treatment end, the NOR task performance of all mice was again determined. […]

As for `CC(C)(C)[C@]1(O)CC2OC(=O)CC23C(=O)OC2OC(=O)[C@H](O)C231` (stereo partly drawn) [BB, bilobalide], in the experiment on Ts65Dn mice, the cognitive function result is listed as “improve in a long-lasting manner” and the “hippocampal LTP induction” value is “improve in a long-lasting manner”.

For `C1CCc2nnnn2CC1` [PTZ, pentylenetetrazole], the “time spent exploring objects in NOR task” value with wild-type (2N) mice was “more time on the new object during the testing session”. Besides, the “performance in the Novel Object Recognition (NOR) task” value in experiment [1] (dark phase (wakefulness)) is recorded as “some improvement relative to the saline-injected controls; also recorded: less effective in improving performance in the NOR task; also recorded: less effective in improving cognitive function”. Moreover, the “performance in the Novel Object Recognition (NOR) task” value in experiment [1] (middle of light phase (sleep)) is given as “spent a significantly larger proportion of time of the testing session exploring the novel object; also recorded: normalizes performance in the Novel Object Recognition (NOR) task; also recorded: can improve cognition”. For the same molecule, in the experiment on Ts65Dn mice, the cognitive function result is “improve in a long-lasting manner” and the “hippocampal LTP induction” value was “improve in a long-lasting manner”.

On to picrotoxin [PTX], for which, in the experiment with Ts65Dn mice, the cognitive function result was “improve in a long-lasting manner” and the “hippocampal LTP induction” value is given as “improve in a long-lasting manner”.
